Structures can show the parent of a compound that is named as a salt.
Experiment: Pharmacokinetic study in mice
Format: in vivo
Settings: IP
Description: The investigation of PK properties of 0260 was carried out using 30 ICR/CD-1 mice. Intraperitoneal (IP) administration was used, and the solution was administered as 10 ml per 1 kg of animal body weight. At 5, 15, 30, 60, 120, and 240 min after administration (5 mice per each time point) mice were decapitated and blood samples were taken in EDTA-containing tubes. Plasma was prepared from the collected blood by centrifugation and then forwarded for LC-MS/MS analysis. A high sensitivity analytical method was developed for detection of 0260. Analysis was performed in the Agilent 1100 HPLC system including degasser, the binary pump, autosampler, and absorption detector with variable wavelength ranging between 190-600 nm. The HPLC system was coupled with the tandem mass spectrometer API 2000 (Applied Biosystems). The TurboIonSpray ion source was used in the positive ion mode. Data acquisition was performed with Analyst 1.3.1 software.

## CC(C)c1ccc(-c2cn3nc(N4CCC(CN5CCN(C)CC5)CC4)sc3n2)cc1 [compound 0260, tartarate salt of 6-(4-isopropyl-phenyl)-2-{4-[(4-methyl-piperazin-1-yl)methyl]piperidin-1-yl}-imidazo [2,1-b][1,3,4]thiadiazole]
ICR/CD-1, mouse, plasma, read-out: T1/2 in the blood
  half-life: 2.92 h
  volume of distribution: 4.244 L/kg
